Test results taken from patent publication US10793598B2, “GrB-EHITSN inhibitory peptides” (Rush University Medical Center, priority 2014, dated 2020).
No end group written: not given here.

T1: myc-GrB-EHITSN (Homo sapiens, UniProt Q15811)
T1 construct: with a conserved cleavage site (IDQD^271GK) throughout the evolution; expressed in transfected cells; host or cells: endothelial cells (ECs), stably transfected, neomycin-selected; lysates resolved by SDS-PAGE and blotted
T1 sequence (Q15811 1-271): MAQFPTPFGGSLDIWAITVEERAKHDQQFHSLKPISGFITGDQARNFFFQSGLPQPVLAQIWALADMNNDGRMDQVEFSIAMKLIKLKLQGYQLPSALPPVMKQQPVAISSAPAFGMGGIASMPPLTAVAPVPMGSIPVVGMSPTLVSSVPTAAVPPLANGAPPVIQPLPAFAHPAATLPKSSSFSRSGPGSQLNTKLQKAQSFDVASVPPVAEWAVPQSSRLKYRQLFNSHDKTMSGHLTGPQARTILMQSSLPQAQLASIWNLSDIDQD


Tests used:
[1] = tested on: myc-GrB-EHITSN-transfected ECs; assay: MTT assay of EC proliferation / cell growth; format: cell-based; conditions: for cell growth / EC proliferative potential (MTT): myc-GrB-EHITSN-transfected ECs, 12.5 μM peptide, 1 h, 37° C., vs transfected ECs not exposed
Experimental: (§1) (c), using phospho (p)-p38 and p38 Abs. […] C. […] Bar: 50 μm. Inset c1. ECCtrl (a) and myc-GrB-EHITSN-ECs (b) lysates resolved on SDS PAGE and transferred to nitrocellulose membranes were overlaid with the PenNFP-FITC.
(§2) ECs stably transfected with the myc-GrB-EHITSN [selected based on neomycin-resistance], were treated with the PenNPF-FITC peptide to address whether inhibition of GrB-EHITSN ameliorates EC proliferation. […] A growth curve was generated to relate the OD^570 values to the cell number per well. […] Inset c1. ECCtrl (a) and myc-GrB-EHITSN-ECs (b) lysates resolved on SDS PAGE and transferred to nitrocellulose membranes were overlaid with the PenNFP-FITC.

ECs = assay: Fluorescence microscopy of peptide internalization; format: cell-based; conditions: 12.5 μM PenNPF-FITC
Experimental: (§3) FIGS. 1A-1C illustrate the effect of the GrB-EHITSN inhibitory peptide on ECs. A. MTT assay applied on ECCtrl, myc-GrB-EHITSN-transfected ECs and myc-GrB-EHITSN-transfected ECs exposed to 12.5 μM PenNFP-FITC peptide for 1 h, 37° C.; p<0.05; WB of cell lysates (inset a1) of ECCtrl (a), myc-GrB-EHITSN-ECs (b) and myc-GrB-EHITSN-ECs+12.5 μM PenNPF for 1 h, 37° C. (c), using phospho (p)-p38 and p38 Abs. B. Quantification of EC proliferation: ECCtrl (a), myc-GrB-EHITSN-ECs (b), myc-GrB-EHITSN-ECs+12.5 μM PenNPF (c), myc-GrB-EHITSN-ECs+12.5 μM Pen-AAA (d), myc-GrB-EHITSN-ECs+12.5 μM Pen (e), myc-GrB-EHITSN-ECs+12.5 μM NPF (f), and myc-GrB-EHITSN-ECs+12.5 μM scrambled penNPF, (g). Data in A and B are mean±SEM of 3 independent experiments performed in triplicates. *p<0.05 vs. ECCtrl. C. Fluorescence microscopy of ECs exposed to 12.5 μM PenNPF-FITC, fixed and mounted on glass slides with Prolong Antifade with DAPI. Bar: 50 μm. Inset c1. ECCtrl (a) and myc-GrB-EHITSN-ECs (b) lysates resolved on SDS PAGE and transferred to nitrocellulose membranes were overlaid with the PenNFP-FITC.
(§4) ECs stably transfected with the myc-GrB-EHITSN [selected based on neomycin-resistance], were treated with the PenNPF-FITC peptide to address whether inhibition of GrB-EHITSN ameliorates EC proliferation. […] A growth curve was generated to relate the OD^570 values to the cell number per well. […]

myc-GrB-EHITSN = target: T1, myc-GrB-EHITSN; assay: Overlay of lysates on nitrocellulose membranes with FITC peptide, detected by FITC Ab; format: binding; conditions: overlay on myc-GrB-EHITSN-EC lysates; n=3
Experimental: as §3, §4

phospho-p38 = assay: WB of cell lysates using phospho (p)-p38 and p38 Abs; format: cell-based; conditions: GrB-EHITSN-transfected ECs, exposure for 24 h
Experimental: as §1, §2

myc-GrB-EHITSN-mice = assay: RVSP measured by right heart catheterization; format: in vivo, mouse
Experimental: FIGS. 3A-3D illustrate representative H&E staining of lung sections of myc-GrB-EHITSN-KDITSN mice (A, a1, B) and RVSP measurements (C) in wt-(bar a), empty-Lipo (bar b) and myc-GrB-EHITSN-mice (bar c), 10 days of GrB-EHITSN treatment. […] Data are mean±SEM. For morphological assessment of peptide internalization (panel D), mice were sacrificed 1 h after injection. Bars: 50 μm (A, B); 20 μm (a1, D). n=3.

[2] = WB with myc Ab on lung lysates (expression of the encoded protein); format: in vivo, mouse; conditions: after liposomal plasmid delivery; efficiently expressed at 48 h post-delivery
Experimental: (§5) GrB-EHITSN has EC proliferative potential in vivo. To address the proliferative potential of GrB-EHITSN in vivo, the myc-GrB-EHITSN DNA plasmid was delivered via cationic liposomes into mouse lungs. (Knezevic, 2011). […] For continuous and efficient long-term expression of myc-GrB-EHITSN, mice were injected repeatedly every 48 h, for 9 days (Bardita, 2013). Actin was used as loading control. In parallel studies, myc-GrB-EHITSN-transduced mice (FIG. 2B) and wt-controls (FIG. 2A) were subjected to BrdU cell proliferation and morphometric analyses, at day 6 of GrB-EHITSN treatment (Bardita, 2013). BrdU was injected intra-peritoneally every 24 h, for 2 consecutive days (day 4 and 5 of myc-GrB-EHITSN treatment). Incorporated BrdU was detected via BrdU-FITC Ab; CD31 Ab/AlexaFluor 594 was used for positive identification of ECs. For morphological assessment of peptide internalization mice were sacrificed 1 h after injection. […] Data in FIG. 2A-B indicate that the GrB-EHITSN has EC proliferative in vivo.

BrdU+ ECs = assay: BrdU cell proliferation assay in mouse lungs; format: in vivo; conditions: myc-GrB-EHITSN plasmid via cationic liposomes into mouse lungs, day 6 of treatment
Source text: FIGS. 2A-2B illustrate the proliferative effect of the GrB-EHITSN fragment on EC in vivo. Wt-mice (B) and myc-GrB-EHITSN-treated mice, day 5 of treatment (A) were subjected to BrdU proliferation assay. Data are mean±SEM. All data are representative of 3 mice in each group. Bars: 20 μm.
as §5

GrB-EHITSN-mice = assay: Fulton's index (RV hypertrophy); format: in vivo, mouse; conditions: means±SEM, p<0.05 vs wt-mice
Source text: GrB-EHITSN increases pulmonary pressure in mouse lungs. […] The Fulton's index (RV/left ventricle plus septum), indicative of RV hypertrophy, assessed as in (Qin, 2012) was higher in GrB-EHITSN-mice compared to wt-mice (0.31±0.03 vs. 0.22±0.01; means±SEM; p<0.05).

| interaction with myc-GrB-EHITSN (myc-GrB-EHITSN) | Molecule | decrease in the number of myc-GrB-EHITSN-transfected cells ([1]; calculated on 3 successive points of growth curve, vs transfected ECs not exposed to peptide) | cell growth / EC proliferative potential (MTT) [1] | OD570 values ([1]; wells with myc-GrB-EHITSN-transfected cells exposed to peptide) | internalization by ECs (fluorescent imaging) (ECs) | phospho-p38 / p38 activation (phospho-p38) | decrease in RVSP (myc-GrB-EHITSN-mice; myc-GrB-EHITSN-mice, 50 μg PenNPF/mouse) | increase in RVSP compared to wt- and empty liposomes-treated mice (myc-GrB-EHITSN-mice; day 10-post initial GrB-EHITSN delivery) | lifetime of encoded protein in mouse lung [2] | increase in BrdU+ ECs relative to controls (BrdU+ ECs) | Fulton's index (RV/left ventricle plus septum) (GrB-EHITSN-mice) |
| --- | --- | --- | --- | --- | --- | --- | --- | --- | --- | --- | --- |
| direct interaction | PenNPF-FITC: PenNPF inhibitory peptide carrying a FITC-tag (RQIKIWFQNRRMKWKKPTGSSSTNPFL; also: FITC tag, site not given here) | greater than 35% | inhibits cell growth | close to the OD^570 values of control ECs | efficient internalization | phospho-p38 inhibition | – | – | – | – | – |
| – | RQIKIWFQNRRMKWKKPTGSSSTNPFL (PenNPF fusion peptide) | – | decreases the ECs proliferative potential of GrB-EHITSN | – | – | decreases the ECs proliferative potential of GrB-EHITSN and p38 activation | 20% | – | – | – | – |
| – | myc-GrB-EHITSN: myc-tagged granzyme B cleavage fragment of intersectin-1s (two EH domains), expressed from DNA plasmid delivered via cationic liposomes (protein, left off: small tags and cut ends, myc-tagged granzyme B cleavage fragment of intersectin-1s (two EH domains), expressed from DNA plasmid delivered via cationic liposomes) MAQFPTPFGGSLDIWAITVEERAKHDQQFHSLKPISGFITGDQARNFFFQSGLPQPVLAQIWALADMNNDGRMDQVEFSIAMKLIKLKLQGYQLPSALPPVMKQQPVAISSAPAFGMGGIASMPPLTAVAPVPMGSIPVVGMSPTLVSSVPTAAVPPLANGAPPVIQPLPAFAHPAATLPKSSSFSRSGPGSQLNTKLQKAQSFDVASVPPVAEWAVPQSSRLKYRQLFNSHDKTMSGHLTGPQARTILMQSSLPQAQLASIWNLSDIDQD | – | – | – | – | – | – | 1.36 fold | about 72 h | more than 1.6 fold | 0.31±0.03 |
